Patent publication EP0035619B1, “Derivatives of 3-amino-(1H,3H)-2,4-quinazolin-diones” (BERRI-BALZAC Société dite:, priority 1980, dated 1981)

Tests used:
Format in all cases: in vivo
souris Swiss = assay: Acute toxicity (LD50) in Swiss mice
Description: Les toxicités aiguës ont été déterminées sur la souris Swiss.
Par exemple, pour le composé de l'exemple 3, la DL50 par voie IP est de 250 mg et per os de 225 mg.

rat vigile = assay: Diuretic action in the conscious rat with i.p. isotonic sodium chloride load; settings: mean increase of diuresis versus mean of controls
Description: (§1) L'action diurétique est mesurée sur le rat vigile traité par 25 ou 50 mg/kg de substance à tester prise par voie orale ou intrapéritonéale et recevant une injection I.P. de soluté isotonique de chlorure de sodium au début de l'essai. Les rats sont groupés par trois et les expériences sont répétées en croisant les lots de rats.
La diurèse est exprimée par le pourcentage de l'augmentation moyenne de la diurèse par rapport à la moyenne des témoins.
as §1, with “IP” for “I.P.”

[1] = Potentiation of psychotropic drugs (Nembutal, Chlorpromazine, morphine) and antagonism of amphetamine
Text: (§2) D'autre part, il faut noter une potentialisation par les composés de formule (I) des psychotropes : Nembutal, Chlorpromazine, morphine, et un antagoniste de l'amphétamine. A titre d'exemple, le composé de l'exemple 3 potentialise l'effet hypnotique du Nembutal de + 146 %, celui de la Chlorpromazine de + 50 % et celui de la morphine de 40 %. Par contre, il antagonise à 70 % les effets de l'amphétamine.
as §2, with “morphine” for “morphine,”

souris = assay: Sedative action: sedation index (hole-board exploration, hypothermia, mobility, agility)
Text: (§3) L'action sédative est mesurée par un indice de sédation. Cet indice de sédation tient compte du pourcentage, chez la souris, de la diminution de l'exploration de la planche à trous par rapport à des témoins, de l'hypothermie, de la mobilité, de l'agilité. Les résultats pour le composé de l'exemple 3, sont donnés au Tableau Il.
as §3, with “3” for “3,”, “II.” for “Il.”

SMILES: CN(C)n1c(=O)c2ccccc2n(C)c1=O [Exemple 3, diméthylamino-3 méthyl-1 (1 H, 3H) quinazolinedione-2,4]
- DL50 (souris Swiss; par voie IP): 250 mg
- DL50 (souris Swiss; per os): 225 mg
- Diurèse (rat vigile; 25 mg/kg par voie IP): 60%
- Diurèse (rat vigile; 25 mg/kg par voie orale): 77%
- Diurèse (rat vigile; 50 mg/kg par voie IP): 200%
- Diurèse (rat vigile; 50 mg/kg par voie orale): 200%
- potentialise l'effet de la Chlorpromazine ([1]; with Chlorpromazine): 50%
- potentialise l'effet hypnotique du Nembutal ([1]; with Nembutal): 146%
- antagonise les effets de l'amphétamine ([1]; with amphétamine): 70%
- potentialise l'effet de la morphine ([1]; with morphine): 40%
- Indice de sédation (souris; 50 mg/kg per os): 76
- Indice de sédation (souris; 100 mg/kg per os): 164
- Indice de sédation chimique (souris; 100 mg/kg per os): 179
- Indice de sédation (souris; 100 mg/kg voie I.P.): 236
